The values that follow come from patent publication EP0652009A1, “Identification and use of protease inhibitors” (ELI LILLY AND COMPANY, priority 1993, dated 1995).

In the assay the target is Human liver cathepsin D (Homo sapiens, UniProt P07339). Briefly: Assay 2: cathepsin D inhibition activity (non-cellular fluorometric assay). In kind it is biochemical. The arrangement: Human liver cathepsin D (Athens Research and Technology, Athens, GA); purchased Athens Research and Technology, Athens, GA. The method, then:
A second non-cellular assay for determining in vitro aspartyl protease inhibitory activity utilizes a microtiter plate, where a suitable aspartyl protease, such as cathepsin D is added to each well together with controls. A suitable fluorometric substrate is added to each well. The resultant reaction mixture is allowed to react for a preselected time, e.g., 30 minutes. After enzyme activity is terminated, the substrate or its product may be determined fluorometrically and then the protease inhibition activity may be calculated based on the rates of substrate turnover. This assay is exemplified in Assay 2, below.
A fluorometric assay was adapted from the method disclosed by Murakami et al., (1981) Anal. Biochem. 110:232-239 for measuring renin activity. Human liver cathepsin D (Athens Research and Technology, Athens, GA) was diluted in assay buffer, 200mM NaOAc, pH 4.5, 150mM NaCl to 500 ng/mL and then 100 µL of this cathepsin D solution was added to each well of a 96 well plate with the exception of control wells which received just 100 µL of assay buffer. Compound stocks were prepared by dissolving an aspartyl protease inhibitor in DMSO for each concentration tested in the assay and then 5 µL of compound stock was added to each of the wells prepared above. Blank and enzyme control wells each received 5 µL of the DMSO vehicle.
Following a ten minute incubation at 25°C to allow enzyme/compound interaction, 5 µL of 500µM fluorometric substrate (Suc-Arg-Pro-Phe-His-Leu-Leu-Val-Try-AMC [SEQ ID NO:4], Bachem Biosciences, Philadelphia, PA) in DMSO was added per well to initiate the reaction. After incubation at 37°C for 30 minutes, cathepsin D activity was terminated by the addition of 100 µL per well of 400 mU/mL microsomal leucine aminopeptidase (EC 3.4.11.2, Sigma, St. Louis, MO) in 1M Tris-HCl, pH 8.0.
The plates were then analyzed in a fluorometer (CytoFluor 2350, Millipore, Bedford, MA) with an excitation wavelength of 360nm and an emission wavelength of 460nm, in order to check for background fluorescence due to test compounds. Following a two hour incubation at 37°C, to allow the aminopeptidase to release the fluorophore, 7-amido-4-methylcoumarin (AMC) from the products of cathepsin D cleavage, the plates were again analyzed in the fluorometer. In order to check for potential false positives, i.e., inhibitors of microsomal leucine aminopeptidase, residual aminopeptidase activity was monitored directly in each well by the addition of 20 µL/well of 2.5mM Leu-pNA (Bachem Biosciences, Philadelphia, PA) in 10% DMSO. Aminopeptidase activity was measured as an increase in the absorbance at 405nm in a UVmax microplate reader (Molecular Devices, Menlo Park, CA).
The compounds prepared in Examples 9, 12, 13, 20-23, 23A, 24, 30, 41-43, 45, and 48 were assayed at 10 µg/mL for cathepsin D inhibition activity using Assay 2. Cathepsin D activity was linear under these conditions and the results are expressed as percent inhibition of the control activity in Assay Table 2, below. All results presented are the mean and standard deviation of at least four replicate assays. Assay Table 2

[1] abbreviates: compound at 10 µg/mL, percent inhibition of control activity, mean and standard deviation of at least four replicate assays.

Read-outs that look alike come from different tables or passages of the source.

Human liver cathepsin D, sequence (P07339 169-412 limits assumed): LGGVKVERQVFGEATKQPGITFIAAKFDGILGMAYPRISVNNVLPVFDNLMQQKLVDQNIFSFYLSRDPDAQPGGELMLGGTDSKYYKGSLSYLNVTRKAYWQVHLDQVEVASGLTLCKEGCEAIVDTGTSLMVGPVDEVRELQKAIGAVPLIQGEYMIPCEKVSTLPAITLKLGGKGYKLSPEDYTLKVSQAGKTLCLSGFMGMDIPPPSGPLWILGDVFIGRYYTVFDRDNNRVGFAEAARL
Human liver cathepsin D, sequence (P07339 65-162 limits assumed): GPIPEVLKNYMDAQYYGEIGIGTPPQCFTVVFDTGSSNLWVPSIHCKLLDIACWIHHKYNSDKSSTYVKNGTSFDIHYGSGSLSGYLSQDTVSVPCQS

Take `Cc1ccc(C(=O)C2NCCc3ccccc32)cc1C(=O)N[C@@H](Cc1ccccc1)[C@H](O)CN1C[C@H]2CCCC[C@H]2C[C@H]1C(=O)NC(C)(C)C` (relative stereo) [Example 30, [3S-(3R*,4aR*,8aR*,2'S*,3'R*)]-2-[2'-Hydroxy-3'-phenylmethyl-4'-aza-5'-oxo-5'-(3''-[1''',2''',3''',4'''-tetrahydroisoquinolin-1'''-ylcarbonyl]-6''-methyl)phenyl]pentyl-decahydroisoquinoline-3-N-t-butylcarboxamide]: under setting [1], the “Cathepsin D Inhibition” value turned out to be 69.2 ± 3.5%.

In general, inhibition refers to how much of the control response was suppressed. Higher therefore signals strong suppression. Compound `Cc1cccc2ccc(C(=O)N[C@@H](CC(N)=O)C(=O)N[C@@H](Cc3ccccc3)[C@H](O)Cc3ccccc3C(=O)NC(C)(C)C)nc12` [Example 9, [1S-(1R*,4R*,5S*)]-N-(1-(2-Amino-2-oxoethyl)-2-oxo-3-aza-4-phenylmethyl-5-hydroxy-6-(2-(1-t-butylamino-1-oxomethyl)phenyl)hexyl)-8-methylquinolin-2-yl carboxamide] returned an inhibition at 10 µg/mL of 44.4 ± 1.9%.

Consider `CC(C)C(NC(=O)C(Cc1cccc2ccccc12)NC(=O)OC(C)(C)C)C(=O)NC(Cc1ccccc1)C(O)Cc1ccccc1C(=O)NC(C)(C)C` (stereo not drawn) [Example 23, [2R-(2R*,3S*,6S*,9S*)]-N-t-Butyl-2-[2-hydroxy-3-phenylmethyl-4,7-diaza-5,8-dioxo-6-(1-methylethyl)-9-N(t-butoxycarbonyl)amino-10-naphth-1-yl]decyl benzamide], for which the inhibition at 10 µg/mL under setting [1] was determined as 96.3 ± 0.9%.

For `CC(C)C(NC(=O)C(Cc1cccc2ccccc12)NC(=O)OC(C)(C)C)C(=O)NC(Cc1ccccc1)C(O)Cc1ccccc1C(=O)NC(C)(C)C` (stereo not drawn) [Example 24, [2R-(2R*,3S*,6S*,9R*)]-N-t-Butyl-2-[2-hydroxy-3-phenylmethyl-4,7-diaza-5,8-dioxo-6-(1-methylethyl)-9-N(t-butoxycarbonyl)amino-10-naphth-1-yl]decyl benzamide], the “Cathepsin D Inhibition” value under setting [1] is listed as 92.7 ± 0.5%.
